Test results published in DBAASP.
Values after ≈ are worked out from the molar mass of the structure shown. Values joined by “and” are separate entries in the source; they are usually repeats but may differ in a detail not shown here. Identical values can stand only once.

Key:
Assay in all cases: ≥ marks a high value that may be exact or a test limit, other limits are often not marked, values filed in µg/mL are converted to µM
[1] = test system: Micrococcus luteus ATCC 9341
[2] = test system: Staphylococcus aureus ATCC 6538
[3] = test system: Candida albicans ATCC 36232
[4] = test system: Escherichia coli ATCC 2592
[5] = test system: Pseudomonas aeruginosa ATCC 9027
[6] = test system: Escherichia coli DH5alpha
[7] = test system: Klebsiella pneumoniae ATCC 10031
[8] = test system: Salmonella enterica subsp. enterica serovar Typhimurium ATCC 14028
[9] = test system: Escherichia coli ATCC 10536
[10] = test system: Staphylococcus aureus ATCC 9144
[11] = test system: Bacillus subtilis ATCC 6633
[12] = test system: Candida albicans ATCC 20032
[13] = test system: Escherichia coli ATCC 25922
[14] = test system: Staphylococcus aureus ATCC 25923
[15] = test system: Streptococcus mutans ATCC 25175
[16] = test system: Pseudomonas aeruginosa ATCC 27853
[17] = test system: Staphylococcus aureus ATCC 12600
[18] = test system: Pseudomonas aeruginosa H103
[19] = test system: Salmonella enterica serovar Typhimurium
Escherichia coli UB1005 = test system: Escherichia coli UB1005
[20] = test system: Staphylococcus epidermidis
Candida albicans = test system: Candida albicans
Staphylococcus aureus = test system: Staphylococcus aureus
[21] = test system: Staphylococcus epidermidis ATCC 12228

Question: With `CC(C)C[C@H](NC(=O)[C@H](CS)NC(=O)[C@H](CCCCN)NC(=O)[C@H](C)NC(=O)[C@H](C)NC(=O)[C@H](CS)NC(=O)[C@H](C)NC(=O)[C@H](C)NC(=O)[C@@H](N)CC(=O)O)C(=O)N[C@@H](Cc1c[nH]c2ccccc12)C(=O)N[C@@H](CCCN=C(N)N)C(N)=O` [DAACAAKCLWR] as the compound, how does the MIC [1] read?
Answer: ≥ 166 µM

Question: And the MIC [2]?
Answer: 166 µM (≈ 200 µg/mL)

Question: And the MIC [3]?
Answer: ≥ 166 µM

Question: What about the MIC [4] of the same compound?
Answer: ≥ 166 µM

Question: What about the MIC [5] of the same compound?
Answer: > 166 µM

Question: `CC(C)C[C@H](NC(=O)[C@H](Cc1ccccc1)NC(=O)[C@H](CCCCN)NC(=O)[C@H](C)NC(=O)[C@H](C)NC(=O)[C@H](CC(C)C)NC(=O)[C@H](CCCCN)NC(=O)[C@H](CCCCN)NC(=O)[C@H](CC(C)C)NC(=O)[C@H](CC(C)C)NC(=O)[C@H](CCCCN)NC(=O)[C@H](CC(C)C)NC(=O)[C@@H](N)Cc1ccccc1)C(=O)O` [FLKLLKKLAAKFL] was tested. Which MIC [6] did it give?
Answer: 2.04 µM (≈ 3.13 µg/mL)

Question: What about the MIC [7] of the same compound?
Answer: 16.3 µM (≈ 25 µg/mL)

Question: What about the MIC [8] of the same compound?
Answer: 16.3 µM (≈ 25 µg/mL)

Question: How did the MIC [9] turn out when `CC[C@H](C)[C@H](NC(=O)[C@@H]1CCCN1C(=O)[C@@H]1CCCN1C(=O)[C@H](CO)NC(=O)[C@@H](NC(=O)[C@H](CCCCN)NC(=O)[C@H](CCCCN)NC(=O)[C@H](Cc1ccccc1)NC(=O)[C@H](CC(C)C)NC(=O)[C@H](CCCCN)NC(=O)[C@H](CCCCN)NC(=O)CNC(=O)[C@H](CCCCN)NC(=O)[C@H](CCCCN)NC(=O)[C@H](CCCN=C(N)N)NC(=O)[C@H](Cc1ccccc1)NC(=O)[C@H](CCCN=C(N)N)NC(=O)[C@H](CCCCN)NC(=O)[C@H](Cc1ccccc1)NC(=O)[C@H](CCCN=C(N)N)NC(=O)[C@@H](N)Cc1ccccc1)C(C)C)C(=O)N[C@@H](CC(C)C)C(=O)N[C@@H](CC(C)C)C(=O)N[C@@H](CC(C)C)C(=O)N[C@@H](Cc1cnc[nH]1)C(=O)N[C@@H](CC(C)C)C(N)=O` [FRFKRFRKKGKKLFKKVSPPILLLHL] was run?
Answer: 3.3 µM and 8.1 µM

Question: What about the MIC [6] of the same compound?
Answer: 3.1 µM (≈ 10 µg/mL)

Question: And the MIC [10]?
Answer: 3.2 µM (≈ 10.3 µg/mL)

Question: How did the MIC [9] turn out when `CC[C@H](C)[C@H](NC(=O)[C@H](CCCN=C(N)N)NC(=O)[C@@H](NC(=O)[C@@H](NC(=O)[C@@H]1CCCN1C(=O)[C@@H](NC(=O)[C@@H](NC(=O)[C@@H](NC(=O)[C@@H]1CCCN1C(=O)CNC(=O)[C@H](Cc1ccc(O)cc1)NC(=O)[C@H](CCCCN)NC(=O)[C@H](CCCCN)NC(=O)[C@H](Cc1c[nH]c2ccccc12)NC(=O)[C@H](C)NC(=O)[C@H](CCCN=C(N)N)NC(=O)[C@H](CC(C)C)NC(=O)[C@@H](NC(=O)[C@H](CCCCN)NC(=O)[C@H](CCCN=C(N)N)NC(=O)CNC(=O)[C@H](CC(C)C)NC(=O)[C@H](CO)NC(=O)[C@H](CCCN=C(N)N)NC(=O)[C@H](C)NC(=O)CNC(=O)CN)[C@@H](C)CC)[C@@H](C)CC)[C@@H](C)CC)C(C)C)[C@@H](C)CC)[C@@H](C)CC)C(N)=O` [GGARSLGRKILRAWKKYGPIIVPIIRI] was run?
Answer: 2.2 µM (≈ 6.67 µg/mL)

Question: And the MIC [6]?
Answer: 2.5 µM (≈ 7.58 µg/mL)

Question: And the MIC [10]?
Answer: 3.1 µM (≈ 9.4 µg/mL)

Question: What about the MIC [11] of the same compound?
Answer: 1.2 µM (≈ 3.64 µg/mL)

Question: Which MIC [9] does the source give for `CC[C@H](C)[C@H](NC(=O)CN)C(=O)NCC(=O)N[C@@H](C)C(=O)N[C@H](C(=O)N[C@@H](CC(C)C)C(=O)N[C@@H](CCCCN)C(=O)N[C@H](C(=O)N[C@@H](C)C(=O)N[C@H](C(=O)N[C@H](C(=O)NCC(=O)N[C@@H](CC(C)C)C(=O)N1CCC[C@H]1C(=O)N[C@@H](C)C(=O)N[C@@H](C)C(=O)N[C@H](C(=O)N[C@@H](CO)C(=O)N[C@@H](Cc1c[nH]c2ccccc12)C(=O)N[C@H](C(=O)N[C@@H](CCCCN)C(=O)N[C@@H](CCCN=C(N)N)C(=O)N[C@@H](CCCCN)C(=O)N[C@@H](CCCN=C(N)N)C(=O)N[C@@H](CCC(N)=O)C(=O)N[C@@H](CCC(N)=O)C(N)=O)[C@@H](C)CC)[C@@H](C)CC)[C@@H](C)O)[C@@H](C)O)C(C)C)C(C)C` [GIGAVLKVATTGLPAAISWIKRKRQQ] here?
Answer: 3.3 µM (≈ 9.12 µg/mL)

Question: What about the MIC [6] of the same compound?
Answer: 4.2 µM (≈ 11.6 µg/mL)

Question: What about the MIC [10] of the same compound?
Answer: 4 µM (≈ 11 µg/mL)

Question: And the MIC [11]?
Answer: 6 µM (≈ 16.6 µg/mL)

Question: Which results are given for `CC[C@H](C)[C@H](NC(=O)CN)C(=O)NCC(=O)NCC(=O)N[C@@H](C)C(=O)N[C@@H](CC(C)C)C(=O)N[C@@H](CC(C)C)C(=O)N[C@@H](CO)C(=O)N[C@@H](C)C(=O)NCC(=O)N[C@@H](CCCCN)C(=O)N[C@@H](CO)C(=O)N[C@@H](C)C(=O)N[C@@H](CC(C)C)C(=O)N[C@@H](CCCCN)C(=O)NCC(=O)N[C@@H](CC(C)C)C(=O)N[C@@H](C)C(=O)N[C@@H](CCCCN)C(=O)NCC(=O)N[C@@H](CC(C)C)C(=O)N[C@@H](C)C(=O)N[C@@H](CCC(=O)O)C(=O)N[C@@H](Cc1cnc[nH]1)C(=O)N[C@@H](Cc1ccccc1)C(N)=O` [GIGGALLSAGKSALKGLAKGLAEHF]?
Answer: MIC [12]: ≥ 42.3 µM; MIC [13]: 31.7 µM (≈ 75 µg/mL); MIC [14]: 15.8 µM (≈ 37.5 µg/mL); MIC [11]: ≥ 42.3 µM

Question: `CC[C@H](C)[C@H](NC(=O)[C@H](C)NC(=O)CNC(=O)[C@H](Cc1ccccc1)NC(=O)[C@H](CC(C)C)NC(=O)CN)C(=O)N[C@@H](C)C(=O)NCC(=O)N[C@@H](Cc1ccccc1)C(=O)N[C@H](C(=O)N[C@@H](CCC(=O)O)C(=O)N[C@@H](CC(N)=O)C(=O)NCC(=O)N[C@@H](Cc1c[nH]c2ccccc12)C(=O)N[C@@H](CCC(=O)O)C(=O)NCC(=O)N[C@@H](CCSC)C(=O)N[C@H](C(=O)N[C@@H](CC(=O)O)C(=O)NCC(N)=O)[C@@H](C)CC)[C@@H](C)CC` [GLFGAIAGFIENGWEGMIDG] was tested. Which MIC [15] did it give?
Answer: ≥ 60.9 µM

Question: And the MIC [16]?
Answer: > 60.9 µM

Question: What about the MIC [13] of the same compound?
Answer: > 60.9 µM

Question: What about the MIC [17] of the same compound?
Answer: ≥ 60.9 µM

Question: What does the source list for `CC[C@H](C)[C@H](N)C(=O)N[C@@H](CC(C)C)C(=O)NCC(=O)N1CCC[C@H]1C(=O)N[C@H](C(=O)N[C@@H](CC(C)C)C(=O)NCC(=O)N[C@@H](CC(C)C)C(=O)N[C@H](C(=O)NCC(=O)N[C@@H](CC(=O)O)C(=O)N[C@H](C(=O)N[C@@H](CC(C)C)C(=O)NCC(=O)N[C@@H](CC(=O)O)C(=O)N[C@@H](CC(C)C)C(=O)N[C@@H](CC(C)C)C(N)=O)[C@@H](C)O)C(C)C)C(C)C` [ILGPVLGLVGDTLGDLL]?
Answer: MIC [12]: ≥ 60.1 µM; MIC [13]: > 60.1 µM; MIC [14]: > 60.1 µM; MIC [11]: ≥ 60.1 µM

Question: For `CC[C@H](C)[C@H](NC(=O)[C@H](CCCN=C(N)N)NC(=O)[C@H](Cc1ccccc1)NC(=O)[C@H](CCC(N)=O)NC(=O)[C@@H](N)CCCCN)C(=O)N[C@@H](CCCN=C(N)N)C(=O)N[C@H](C(=O)N[C@@H](CCCN=C(N)N)C(=O)N[C@H](C(=O)N[C@H](C(=O)N[C@@H](CCCN=C(N)N)C(=O)N[C@@H](CCCCN)C(N)=O)[C@@H](C)CC)C(C)C)C(C)C` [KQFRIRVRVIRK], which MIC [18] is on record?
Answer: 3.75 µM (≈ 6 µg/mL)

Question: And the MIC [19]?
Answer: 3.75 µM (≈ 6 µg/mL)

Question: And the MIC [14]?
Answer: 7.5 µM (≈ 12 µg/mL)

Question: What about the MIC (Escherichia coli UB1005) of the same compound?
Answer: 1.88 µM (≈ 3 µg/mL)

Question: What about the MIC [20] of the same compound?
Answer: 1 µM (≈ 1.6 µg/mL)

Question: What about the MIC (Candida albicans) of the same compound?
Answer: 3.75 µM (≈ 6 µg/mL)

Question: With `CC(C)[C@H](NC(=O)[C@H](CS)NC(=O)[C@@H](NC(=O)[C@H](CCCN=C(N)N)NC(=O)[C@H](CCCCN)NC(=O)CNC(=O)[C@H](CC(N)=O)NC(=O)[C@H](CS)NC(=O)[C@H](Cc1ccc(O)cc1)NC(=O)CNC(=O)CNC(=O)[C@H](CO)NC(=O)[C@@H](N)CCCN=C(N)N)C(C)C)C(=O)N[C@@H](CS)C(=O)N[C@@H](CCCN=C(N)N)C(=O)O` [RSGGYCNGKRVCVCR] as the compound, how does the MIC (Staphylococcus aureus) read?
Answer: > 60.3 µM

Question: What about the MIC [1] of the same compound?
Answer: 15.1 µM (≈ 25 µg/mL)

Question: And the MIC [2]?
Answer: 15.1 µM (≈ 25 µg/mL)

Question: And the MIC [21]?
Answer: 7.54 µM (≈ 12.5 µg/mL)

Question: And the MIC [3]?
Answer: 15.1 µM (≈ 25 µg/mL)

Question: And the MIC [4]?
Answer: 30.2 µM (≈ 50 µg/mL)

Question: What about the MIC [5] of the same compound?
Answer: 30.2 µM (≈ 50 µg/mL)

Question: What about the MIC [11] of the same compound?
Answer: 7.54 µM (≈ 12.5 µg/mL)

Question: With `CC(C)C[C@H](NC(=O)[C@H](C)NC(=O)[C@@H](N)CO)C(=O)N[C@H](C(=O)NCC(=O)N[C@H]1CSSC[C@@H](C(=O)N[C@@H](Cc2ccccc2)C(=O)NCC(=O)N[C@@H](CCCN=C(N)N)C(=O)NCC(=O)O)NC(=O)[C@@H]2CCCN2C(=O)[C@H](CC(N)=O)NC(=O)[C@@H]2CCCN2C(=O)[C@@H]2CCCN2C(=O)[C@H](Cc2ccc(O)cc2)NC(=O)[C@H](CO)NC(=O)[C@H](CCCCN)NC(=O)[C@H]([C@@H](C)O)NC(=O)[C@H](Cc2c[nH]c3ccccc23)NC1=O)C(C)C` [SALVGCWTKSYPPNPCFGRG] as the compound, how does the MIC [12] read?
Answer: ≥ 46.7 µM

Question: What about the MIC [14] of the same compound?
Answer: 11.7 µM (≈ 25 µg/mL)
